According to patent publication US20240300940A1, “Phenothiazinyl Compounds and Uses” (Prosetta Biosciences, Inc., priority 2023, published 2024):

Columns and labels:
[1] = test system: MRSA ATCC 43300; experiment: Minimum biofilm inhibition assay; type: cell-based, S. aureus
Protocol: The biofilm susceptibility assay and calculation of the percent reduction of AB were performed as described previously (Pettit et al., Antimicrob Agents Chem 2005, 49:2612-17). Biofilm formation was induced by growing MRSA on TSA containing 2% glucose at 37° C. for 24 hrs. After the incubation, culture was used to adjust the cell number to 1-5×10^5 CFU/mL. In parallel, two-fold dilutions of test drug/antibiotic in DMSO/solvent was prepared separately in a PCR dilution plate. 100 μL of CFU adjusted 100 μL of culture was added to 96 well plate by leaving wells for only media control. After adding culture, 2-fold diluted compound in 100% DMSO was added to 96 well plate and plates were incubated another 16-20 hrs at 37° C., to check susceptibility of biofilm forming MRSA with test drug/antibiotic. After susceptibility incubation, Resazurin was added to check inhibition of biofilm forming cells.

[2] = Mouse plasma pharmacokinetics
Protocol: For the mouse plasma pharmacokinetic analyses, the study was conducted in BALB/c mice with single dose of IV-3 mg/kg. Blood samples were collected at 10 time points/dose (0.25, 0.5, 1, 2, 4, 6, 8, 10, 12, and 24 h post dose). At each time point, blood samples were collected from 4 mice from the retro-orbital plexus. A terminal blood collection method was employed for collecting blood samples for each time point in all PK studies. […] The PK parameters were estimated by noncompartmental analysis.
Dose—mg/kg, AUC—ng. h/mL, Cmax-ng/mL, Tmax-h, Kel—1/h, Half-life-h, MRT-h, Clearance—mL/min/kg, Vd-L/kg, Bioavailability-%. IV—Intravenous, IP— Intraperitoneal, PO—Per oral.

[3] = test system: S. aureus ATCC25923; experiment: MIC assay, serial dilution; conditions: Staphylococcus aureus
[4] = BALB/c, mouse, in vivo, iv, 3 mg/kg

With `CC1(C)C2CN(c3ccc4nc5ccc(N6CC7C(C6)C7(C)C)cc5[s+]c4c3)CC21` (stereo not drawn) [Compound 1, 3,7-Di(6,6-dimethyl-3-azabicyclo[3.1.0]hexan-N-yl)phenothiazinium iodide] the MBIC ([1]; MRSA ATCC 43300, biofilm forming) was 0.25, the “concentration inhibiting biofilm forming MRSA” value ([1]; biofilm forming MRSA) was 1 × MIC and the AUC(0-inf) [2, 4] was 2980 ng·h/mL. It also gave an AUC(0-t) [2, 4] of 2710 ng·h/mL, a Cmax [2, 4] of 5620 ng/mL and an MRT [2, 4] of 7 h. The Tmax [2, 4] was 4.8 min, the Vd [2, 4] was 7 L/kg and the clearance [2, 4] was 17 mL/min/kg. It also gave a half-life [2, 4] of 10 h, a Kel ([2]; mice, IV 3 mg/kg single dose) of 0.07 h⁻¹ and an MIC [3] of 0.25 µg/mL.
